{"source": "ChEMBL document CHEMBL5465560", "about": "“Selectivity Literature for EUbOPEN Chemogenomic Library” (2024)", "key": {"[1]": {"biological_target": "T1, Dual specificity mitogen-activated protein kinase kinase 6 (Homo sapiens) (UniProt P52564)", "T1 sequence (whole entry)": "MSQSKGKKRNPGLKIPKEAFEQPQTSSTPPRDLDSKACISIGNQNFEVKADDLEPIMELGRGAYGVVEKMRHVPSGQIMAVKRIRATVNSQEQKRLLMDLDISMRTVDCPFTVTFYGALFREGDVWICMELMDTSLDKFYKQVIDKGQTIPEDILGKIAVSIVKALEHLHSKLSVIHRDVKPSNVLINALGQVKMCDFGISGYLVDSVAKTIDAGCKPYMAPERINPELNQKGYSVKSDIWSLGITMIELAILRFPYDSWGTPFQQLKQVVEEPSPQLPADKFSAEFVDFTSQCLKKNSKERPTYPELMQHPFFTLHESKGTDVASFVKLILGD", "assay": "Selectivity interaction (KinomeScan (DiscoverX)) EUB0000045b MAP2K6"}, "[2]": {"biological_target": "Serine/threonine-protein kinase Nek6 (Homo sapiens) (UniProt Q9HC98)", "sequence (Q9HC98 whole entry)": "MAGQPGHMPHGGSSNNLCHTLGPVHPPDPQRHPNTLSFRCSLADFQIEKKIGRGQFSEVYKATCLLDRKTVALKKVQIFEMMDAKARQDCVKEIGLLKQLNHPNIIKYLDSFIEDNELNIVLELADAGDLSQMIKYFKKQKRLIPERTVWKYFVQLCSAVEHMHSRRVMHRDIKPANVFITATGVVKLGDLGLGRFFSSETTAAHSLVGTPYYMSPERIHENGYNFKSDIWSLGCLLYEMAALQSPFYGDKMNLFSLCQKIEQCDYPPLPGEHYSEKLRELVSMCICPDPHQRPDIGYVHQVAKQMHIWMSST", "assay": "Selectivity interaction (KinomeScan (DiscoverX)) EUB0000045b NEK6"}, "[3]": {"biological_target": "T2, Interleukin-1 receptor-associated kinase 4 (Homo sapiens) (UniProt Q9NWZ3)", "T2 sequence (whole entry)": "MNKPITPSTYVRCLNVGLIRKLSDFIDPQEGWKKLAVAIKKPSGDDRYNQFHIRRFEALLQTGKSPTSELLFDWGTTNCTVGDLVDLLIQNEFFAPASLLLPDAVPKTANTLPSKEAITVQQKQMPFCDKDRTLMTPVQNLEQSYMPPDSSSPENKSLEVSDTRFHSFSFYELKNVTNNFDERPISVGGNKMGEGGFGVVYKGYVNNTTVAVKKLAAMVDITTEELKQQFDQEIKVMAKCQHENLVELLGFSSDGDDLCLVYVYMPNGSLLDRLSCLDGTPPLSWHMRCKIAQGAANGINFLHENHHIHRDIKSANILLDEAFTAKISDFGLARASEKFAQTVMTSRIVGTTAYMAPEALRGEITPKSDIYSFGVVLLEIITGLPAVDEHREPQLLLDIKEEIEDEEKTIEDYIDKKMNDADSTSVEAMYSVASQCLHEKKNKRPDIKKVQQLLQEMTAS", "assay": "Selectivity interaction (KinomeScan (DiscoverX)) EUB0000045b IRAK4"}, "[4]": {"biological_target": "Tyrosine-protein kinase JAK2 (Homo sapiens, UniProt O60674)", "sequence (O60674 whole entry)": "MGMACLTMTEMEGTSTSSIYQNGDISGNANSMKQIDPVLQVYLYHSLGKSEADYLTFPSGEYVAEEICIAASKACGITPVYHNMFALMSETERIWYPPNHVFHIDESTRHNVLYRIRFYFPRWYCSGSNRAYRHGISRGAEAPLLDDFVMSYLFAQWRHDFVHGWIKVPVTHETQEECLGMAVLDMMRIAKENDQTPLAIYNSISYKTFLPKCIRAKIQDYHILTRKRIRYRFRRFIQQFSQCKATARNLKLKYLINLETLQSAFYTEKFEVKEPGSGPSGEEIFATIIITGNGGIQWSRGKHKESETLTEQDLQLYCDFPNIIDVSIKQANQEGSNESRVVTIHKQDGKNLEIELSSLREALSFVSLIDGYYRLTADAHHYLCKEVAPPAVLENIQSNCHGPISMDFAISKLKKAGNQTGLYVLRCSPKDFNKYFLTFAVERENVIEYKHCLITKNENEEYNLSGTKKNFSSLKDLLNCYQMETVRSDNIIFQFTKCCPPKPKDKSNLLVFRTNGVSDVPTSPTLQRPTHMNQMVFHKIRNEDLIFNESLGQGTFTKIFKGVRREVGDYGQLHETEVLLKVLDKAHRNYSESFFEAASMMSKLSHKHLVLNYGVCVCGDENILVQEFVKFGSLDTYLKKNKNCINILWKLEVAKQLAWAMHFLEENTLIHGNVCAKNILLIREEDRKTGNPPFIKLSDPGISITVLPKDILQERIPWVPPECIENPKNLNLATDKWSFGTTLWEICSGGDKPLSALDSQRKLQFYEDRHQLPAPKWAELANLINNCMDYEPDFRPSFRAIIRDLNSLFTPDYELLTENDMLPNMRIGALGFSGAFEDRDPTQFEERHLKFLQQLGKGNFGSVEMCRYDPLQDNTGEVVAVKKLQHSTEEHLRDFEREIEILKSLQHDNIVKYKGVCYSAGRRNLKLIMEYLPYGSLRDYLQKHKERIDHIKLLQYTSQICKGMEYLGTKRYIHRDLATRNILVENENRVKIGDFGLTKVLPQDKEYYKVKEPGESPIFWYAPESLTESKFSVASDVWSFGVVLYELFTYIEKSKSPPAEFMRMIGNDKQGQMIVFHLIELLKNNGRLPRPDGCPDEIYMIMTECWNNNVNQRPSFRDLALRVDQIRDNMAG", "details": "at 10 µM"}, "[5]": {"biological_target": "T3, Serine/threonine-protein kinase tousled-like 1 (Homo sapiens) (UniProt Q9UKI8)", "T3 sequence (whole entry)": "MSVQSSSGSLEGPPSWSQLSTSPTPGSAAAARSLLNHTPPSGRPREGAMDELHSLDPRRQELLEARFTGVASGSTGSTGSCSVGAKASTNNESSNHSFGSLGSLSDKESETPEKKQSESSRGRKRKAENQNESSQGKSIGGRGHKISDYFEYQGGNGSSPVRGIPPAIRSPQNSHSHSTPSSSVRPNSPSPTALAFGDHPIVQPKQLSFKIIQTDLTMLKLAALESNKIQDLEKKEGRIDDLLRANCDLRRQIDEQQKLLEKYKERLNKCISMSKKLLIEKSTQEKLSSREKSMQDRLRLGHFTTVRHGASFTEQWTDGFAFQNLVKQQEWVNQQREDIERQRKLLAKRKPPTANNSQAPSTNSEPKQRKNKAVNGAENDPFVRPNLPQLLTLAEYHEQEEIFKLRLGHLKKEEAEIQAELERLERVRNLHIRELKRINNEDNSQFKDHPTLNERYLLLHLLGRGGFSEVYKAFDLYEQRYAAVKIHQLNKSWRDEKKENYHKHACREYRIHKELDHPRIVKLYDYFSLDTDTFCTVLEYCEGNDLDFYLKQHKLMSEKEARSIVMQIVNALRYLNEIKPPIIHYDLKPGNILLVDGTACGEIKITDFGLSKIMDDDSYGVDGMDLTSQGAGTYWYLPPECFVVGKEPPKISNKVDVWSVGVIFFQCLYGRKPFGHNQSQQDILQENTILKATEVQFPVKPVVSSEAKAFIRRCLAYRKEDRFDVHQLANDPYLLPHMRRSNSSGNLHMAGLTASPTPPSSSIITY", "assay": "Selectivity interaction (ActivX KiNativ screen (ex vivo kinase selectivity in human PBMCs)) EUB0001619a TLK1", "format": "cell-based", "details": "PBMC, at 1 µM"}, "[6]": {"biological_target": "T4, Mitogen-activated protein kinase 13 (Homo sapiens) (UniProt O15264)", "T4 sequence (whole entry)": "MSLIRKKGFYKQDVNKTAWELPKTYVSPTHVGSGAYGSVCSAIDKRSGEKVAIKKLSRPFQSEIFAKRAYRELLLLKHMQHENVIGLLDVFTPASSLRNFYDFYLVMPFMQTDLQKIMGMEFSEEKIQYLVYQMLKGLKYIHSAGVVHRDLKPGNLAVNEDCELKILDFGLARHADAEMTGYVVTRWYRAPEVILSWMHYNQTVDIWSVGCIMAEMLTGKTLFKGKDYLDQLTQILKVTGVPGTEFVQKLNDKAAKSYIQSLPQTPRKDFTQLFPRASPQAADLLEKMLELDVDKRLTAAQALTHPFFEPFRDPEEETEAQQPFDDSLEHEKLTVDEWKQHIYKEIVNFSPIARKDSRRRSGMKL", "assay": "Selectivity interaction (KinomeScan (DiscoverX)) EUB0000618a MAPK13", "details": "at 10 µM"}, "[7]": {"biological_target": "Mitogen-activated protein kinase 6 (Homo sapiens) (UniProt Q16659)", "sequence (Q16659 whole entry)": "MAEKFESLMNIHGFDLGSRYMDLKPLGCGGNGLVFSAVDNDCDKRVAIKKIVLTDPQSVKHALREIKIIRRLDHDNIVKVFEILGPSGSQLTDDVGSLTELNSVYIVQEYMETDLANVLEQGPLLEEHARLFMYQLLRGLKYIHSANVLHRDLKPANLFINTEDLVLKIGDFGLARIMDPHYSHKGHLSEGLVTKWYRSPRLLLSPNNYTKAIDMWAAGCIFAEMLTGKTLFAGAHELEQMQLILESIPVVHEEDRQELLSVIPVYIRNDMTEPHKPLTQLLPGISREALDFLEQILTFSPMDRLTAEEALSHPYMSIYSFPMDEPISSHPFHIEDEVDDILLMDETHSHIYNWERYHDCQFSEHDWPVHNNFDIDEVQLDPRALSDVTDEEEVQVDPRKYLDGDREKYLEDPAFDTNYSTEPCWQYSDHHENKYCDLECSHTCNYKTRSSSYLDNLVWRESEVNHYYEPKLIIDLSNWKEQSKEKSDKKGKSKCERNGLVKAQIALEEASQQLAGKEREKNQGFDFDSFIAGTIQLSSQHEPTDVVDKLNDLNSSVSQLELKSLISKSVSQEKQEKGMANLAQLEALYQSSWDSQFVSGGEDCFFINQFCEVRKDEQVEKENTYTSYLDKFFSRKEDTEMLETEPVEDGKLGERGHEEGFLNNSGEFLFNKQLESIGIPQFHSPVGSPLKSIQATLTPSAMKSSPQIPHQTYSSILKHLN", "assay": "Selectivity interaction (ActivX KiNativ screen (kinase selectivity in THP-1 cell lysates)) EUB0000639a MAPK6", "format": "subcellular", "details": "lysate"}, "[8]": {"biological_target": "Calcium/calmodulin-dependent protein kinase type II subunit beta (Homo sapiens) (UniProt Q13554)", "sequence (Q13554 whole entry)": "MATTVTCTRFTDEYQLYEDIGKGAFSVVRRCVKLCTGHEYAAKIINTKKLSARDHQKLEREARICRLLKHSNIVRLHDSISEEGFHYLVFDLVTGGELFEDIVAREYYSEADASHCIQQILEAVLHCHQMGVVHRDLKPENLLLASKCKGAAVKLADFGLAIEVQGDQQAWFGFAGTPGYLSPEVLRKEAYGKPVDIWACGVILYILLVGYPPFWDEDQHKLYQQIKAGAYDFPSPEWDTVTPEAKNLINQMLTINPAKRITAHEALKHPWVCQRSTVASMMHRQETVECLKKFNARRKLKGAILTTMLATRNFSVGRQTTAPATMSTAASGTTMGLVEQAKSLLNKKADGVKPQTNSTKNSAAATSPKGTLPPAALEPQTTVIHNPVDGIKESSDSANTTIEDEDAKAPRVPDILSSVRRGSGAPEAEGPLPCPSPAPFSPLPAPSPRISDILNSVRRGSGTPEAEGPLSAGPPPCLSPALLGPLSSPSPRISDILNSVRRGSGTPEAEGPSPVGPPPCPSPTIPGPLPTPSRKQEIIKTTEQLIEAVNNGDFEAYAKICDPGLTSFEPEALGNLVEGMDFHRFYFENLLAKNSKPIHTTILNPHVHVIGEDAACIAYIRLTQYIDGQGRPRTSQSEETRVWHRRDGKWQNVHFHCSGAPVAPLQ", "assay": "Selectivity interaction (KinomeScan (DiscoverX)) EUB0000092b CAMK2B", "details": "at 10 µM"}}}
{"smiles": "C=CC(=O)Nc1cc(-n2c(=O)ccc3cnc4ccc(-c5ccc(NS(C)(=O)=O)cc5)cc4c32)ccc1C", "values": [{"measurement": "% of control", "setting": "[1]; at 1 µM", "result": 100, "unit": "%"}, {"measurement": "% of control", "setting": "[1]; at 10 µM", "result": 70, "unit": "%"}, {"measurement": "% of control", "setting": "[2]; at 1 µM", "result": 100, "unit": "%"}, {"measurement": "% of control", "setting": "[2]; at 10 µM", "result": 74, "unit": "%"}, {"measurement": "% of control", "setting": "[3]; at 1 µM", "result": 84, "unit": "%"}, {"measurement": "% of control", "setting": "[3]; at 10 µM", "result": 100, "unit": "%"}]}
{"smiles": "Cc1cc([C@@H](C)Nc2ccccc2C(=O)O)c2nc(N3CCOCC3)cc(=O)n2c1", "note": "[AZD-6482]", "values": [{"measurement": "% of control", "setting": "[4]", "result": 62, "unit": "%"}]}
{"smiles": "N#Cc1cccc(-c2c[nH]c3ncnc(N4CCOCC4)c23)c1", "values": [{"measurement": "% of inhibition", "setting": "[5]", "result": -4, "unit": "%"}]}
{"smiles": "O[C@H]1CC[C@H](Nc2ncc3nc(Nc4c(F)cc(F)cc4F)n([C@H]4CCOC4)c3n2)CC1", "values": [{"measurement": "% of control", "setting": "[6]", "result": 90, "unit": "%"}]}
{"smiles": "CC[C@@H]1[C@H](F)C(=O)N[C@@H]1COc1nccc2cc(C(N)=O)c(OC)cc12", "note": "[ZIMLOVISERTIB]", "values": [{"measurement": "% of inhibition", "setting": "[7]; at 0.01 µM", "result": -20, "unit": "%"}, {"measurement": "% of inhibition", "setting": "[7]; at 0.04 µM", "result": -5.5, "unit": "%"}, {"measurement": "% of inhibition", "setting": "[7]; at 0.2 µM", "result": -11.8, "unit": "%"}, {"measurement": "% of inhibition", "setting": "[7]; at 1 µM", "result": -1.3, "unit": "%"}, {"measurement": "% of inhibition", "setting": "[7]; at 5 µM", "result": -1, "unit": "%"}]}
{"smiles": "CCC(=O)N1CCN(c2ccc(-n3c(=O)ccc4cnc5ccc(-c6cnc7ccccc7c6)cc5c43)cc2C(F)(F)F)CC1", "values": [{"measurement": "% of control", "setting": "[8]", "result": 100, "unit": "%"}]}
